Experimental data reported in ChEMBL document CHEMBL1150180, “Studies on Cytotoxic Constituents in Pericarps of Mallotus japonicus, V. Three New Phloroglucinol Derivatives, Butyrylmallotochromanol, Isobutyrylmallotochromanol, and Mallotojaponol” (1990).
In brackets after ≈: the same amount, converted by molar mass.

Tested on: KB
Experiment: Cytotoxicity against human KB cells
Format: functional
Details: read-out: ED50 (the source's name)

CCCC(=O)c1c(OC(C)=O)c(Cc2c(OC)c(C)c(OC(C)=O)c(C(C)=O)c2OC(C)=O)c(OC(C)=O)c2c1OC(C)(C)C(OC(C)=O)C2 (configuration not stated)
EC50: 2.8 µg/mL (≈ 4.01 µM)

COc1c(C)c(O)c(C(C)=O)c(O)c1Cc1c(O)c2c(c(C(=O)C(C)C)c1O)OC(C)(C)C(O)C2 (configuration not stated) [ISOBUTYRYLMALLOTOCHROMANOL]
EC50: 14.6 µg/mL (≈ 29.9 µM)

COc1c(C)c(OC(C)=O)c(C(C)=O)c(OC(C)=O)c1Cc1c(OC(C)=O)c(CC(OC(C)=O)C(C)(C)OC(C)=O)c(OC(C)=O)c(C(C)=O)c1OC(C)=O (configuration not stated)
EC50: 22.5 µg/mL (≈ 29.1 µM)

CCCC(=O)c1c(O)c(Cc2c(O)c(C(C)=O)c(O)c(C)c2OC)c(O)c2c1OC(C)(C)C(O)C2 (configuration not stated) [BUTYRYLMALLOTOCHROMANOL]
EC50: 13.5 µg/mL (≈ 27.6 µM)

COc1c(C)c(O)c(C(C)=O)c(O)c1Cc1c(O)c2c(c(C(C)=O)c1O)OC(C)(C)C(O)C2 (configuration not stated) [MALLOTOCHROMANOL]
EC50: 21 µg/mL (≈ 45.6 µM)

COc1c(C)c(O)c(C(C)=O)c(O)c1Cc1c(O)c(CC(O)C(C)(C)O)c(O)c(C(C)=O)c1O (configuration not stated) [MALLOTOJAPONOL]
EC50: 22 µg/mL (≈ 46 µM)

COc1c(C)c(OC(C)=O)c(C(C)=O)c(OC(C)=O)c1Cc1c(OC(C)=O)c2c(c(C(=O)C(C)C)c1OC(C)=O)OC(C)(C)C(OC(C)=O)C2 (configuration not stated)
EC50: 4.5 µg/mL (≈ 6.44 µM)
